Reference: ChEMBL document CHEMBL1140353, “Structure-activity relationships of 1-alkyl-5-(3,4-dichlorophenyl)-5-{2-[3-(substituted)-1-azetidinyl]-ethyl}-2-piperidones. Part 2: Improving oral absorption” (Bioorg Med Chem Lett, 2005)

Assays:
Substance-K receptor [1] = molecular target: T1, Substance-K receptor (Homo sapiens, UniProt P21452); test: Inhibition of human Neurokinin 2 receptor
T1 sequence (P21452 whole entry): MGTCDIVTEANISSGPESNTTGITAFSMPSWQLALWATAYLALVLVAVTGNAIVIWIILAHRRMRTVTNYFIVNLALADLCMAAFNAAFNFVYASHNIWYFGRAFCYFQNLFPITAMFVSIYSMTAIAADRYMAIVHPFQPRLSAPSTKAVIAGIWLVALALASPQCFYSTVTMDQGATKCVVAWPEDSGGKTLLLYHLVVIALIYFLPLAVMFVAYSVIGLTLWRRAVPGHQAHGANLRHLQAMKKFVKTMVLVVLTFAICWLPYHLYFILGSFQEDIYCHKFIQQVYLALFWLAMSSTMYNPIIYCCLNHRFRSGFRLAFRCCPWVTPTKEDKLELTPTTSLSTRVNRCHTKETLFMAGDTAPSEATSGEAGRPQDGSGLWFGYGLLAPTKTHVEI

Substance-K receptor [2] = molecular target: T2, Substance-K receptor (Oryctolagus cuniculus, UniProt P79218); test: pA2 for NK2 receptor of rabbit pulmonary artery; type: functional; details: read-out: pA2 (converted)
T2 sequence (P79218 whole entry): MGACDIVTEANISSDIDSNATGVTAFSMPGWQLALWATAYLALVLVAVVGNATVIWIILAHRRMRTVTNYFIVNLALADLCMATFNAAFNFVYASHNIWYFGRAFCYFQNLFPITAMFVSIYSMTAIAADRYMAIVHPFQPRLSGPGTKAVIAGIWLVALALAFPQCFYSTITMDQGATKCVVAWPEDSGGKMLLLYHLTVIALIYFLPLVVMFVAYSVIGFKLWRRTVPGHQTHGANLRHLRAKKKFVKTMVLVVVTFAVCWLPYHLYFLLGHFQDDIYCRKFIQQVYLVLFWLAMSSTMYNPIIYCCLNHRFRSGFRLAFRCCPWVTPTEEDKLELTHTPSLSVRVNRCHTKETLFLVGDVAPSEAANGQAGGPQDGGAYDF

Homo sapiens [3] = species on record: Homo sapiens; test: Ratio of apical basolateral (A-B) and basolateral apical (B-A) determined by Caco-2 assay in human (ER=1); type: ADME
[4] = Half life in human microsomal liver cells; type: ADME; details: liver microsomes
Homo sapiens [5] = species on record: Homo sapiens; test: Ratio of apical basolateral (A-B) and basolateral apical (B-A) determined by Caco-2 assay in human (ER=60/60); type: ADME
Substance-K receptor [6] = molecular target: T1, Substance-K receptor; test: pKi for human Neurokinin 2 receptor
Substance-P receptor = Substance-P receptor (Homo sapiens, UniProt P25103); test: Inhibitory concentration for Tachykinin 1 receptor of human IM9 cells; type: cell-based, IM-9
[7] = Oral absorption of 20 mg/kg tested in rat; type: ADME, organism-based; set-up: dose 20 mg/kg; details: in vivo, read-out: Absorption
Homo sapiens [8] = species on record: Homo sapiens; test: Ratio of apical basolateral (A-B) and basolateral apical (B-A) determined by Caco-2 assay in human (ER=6/12); type: ADME
Homo sapiens [9] = species on record: Homo sapiens; test: Ratio of apical basolateral (A-B) and basolateral apical (B-A) determined by Caco-2 assay in human (ER<2); type: ADME
Homo sapiens [10] = species on record: Homo sapiens; test: Ratio of apical basolateral (A-B) and basolateral apical (B-A) determined by Caco-2 assay in human (ER=12/16); type: ADME
Homo sapiens [11] = species on record: Homo sapiens; test: Ratio of apical basolateral (A-B) and basolateral apical (B-A) determined by Caco-2 assay in human (ER=33/35); type: ADME
[12] = Distribution coefficient (Log D) value at pH 7.4; type: physicochemical; details: octanol/water
Homo sapiens [13] = species on record: Homo sapiens; test: Ratio of apical basolateral (A-B) and basolateral apical (B-A) determined by Caco-2 assay in human (ratio=12/18); type: ADME
Substance-K receptor [14] = molecular target: T1, Substance-K receptor; test: pA2 for NK2 receptor of Human bladder; type: functional; details: read-out: pA2 (converted)
[15] = Oral absorption of 10 mg/kg tested in rat; type: ADME, organism-based; set-up: dose 10 mg/kg; details: in vivo, read-out: Absorption
Homo sapiens [16] = species on record: Homo sapiens; test: Ratio of apical basolateral (A-B) and basolateral apical (B-A) determined by Caco-2 assay in human; (ratio=1/18); type: ADME
[17] = In vivo clearance of […] mg/kg of compound tested in human; type: ADME, organism-based; details: 10 mg/kg
Homo sapiens [18] = species on record: Homo sapiens; test: Ratio of apical basolateral (A-B) and basolateral apical (B-A) determined by Caco-2 assay in human (ratio=2/3); type: ADME
Homo sapiens [19] = species on record: Homo sapiens; test: Ratio of apical basolateral (A-B) and basolateral apical (B-A) determined by Caco-2 assay in human; type: ADME
Homo sapiens [20] = species on record: Homo sapiens; test: Ratio of apical basolateral (A-B) and basolateral apical (B-A) determined by Caco-2 assay in human (ER=2/12); type: ADME

Substance-P receptor, sequence (P25103 whole entry): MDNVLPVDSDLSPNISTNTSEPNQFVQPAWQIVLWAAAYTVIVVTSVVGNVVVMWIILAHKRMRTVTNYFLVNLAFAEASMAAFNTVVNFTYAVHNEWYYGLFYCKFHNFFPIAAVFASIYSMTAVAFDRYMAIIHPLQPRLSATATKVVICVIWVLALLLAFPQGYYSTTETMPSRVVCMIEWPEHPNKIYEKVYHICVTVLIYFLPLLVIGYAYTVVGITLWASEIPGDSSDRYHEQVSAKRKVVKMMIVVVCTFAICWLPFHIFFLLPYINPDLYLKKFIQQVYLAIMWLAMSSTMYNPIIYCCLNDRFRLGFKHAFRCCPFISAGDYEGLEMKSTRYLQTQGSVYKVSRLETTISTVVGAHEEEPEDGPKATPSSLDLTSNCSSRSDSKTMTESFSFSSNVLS

| Structure (SMILES) | IC50 (Substance-K receptor [1]) [nM] | Kb (Substance-K receptor [2]) [nM] | half-life [4] [h] | also measured |
| --- | --- | --- | --- | --- |
| CCOC1CCN(C2CN(CC[C@]3(c4ccc(Cl)c(Cl)c4)CCC(=O)N(CC4CC4)C3)C2)CC1 | 15.8 | 6.31 |  | Caco-2 permeability (Homo sapiens [3]): 34 % hr-1 |
| O=C1CC[C@](CCN2CC(N3CCC(F)CC3)C2)(c2ccc(Cl)c(Cl)c2)CN1C1(C2CC2)CCCC1 |  |  | 0.0333 | Caco-2 permeability (Homo sapiens [5]): Permeable; pKi (Substance-K receptor [6]): 10 |
| O=C1CC[C@](CCN2CC(N3CCC(F)CC3)C2)(c2ccc(Cl)c(Cl)c2)CN1CC1CCC(F)(F)CC1 | 0.398 |  | > 2 | IC50 (Substance-P receptor): > 10000 nM; Fa [7]: > 80%; Caco-2 permeability (Homo sapiens [3]): > 35 % hr-1 |
| CN(C)S(=O)(=O)N1CCN(C2CN(CC[C@]3(c4ccc(Cl)c(Cl)c4)CCC(=O)N(CC4CC4)C3)C2)CC1 | 15.8 | 10 |  |  |
| O=C1CC[C@](CCN2CC(N3CCC(F)CC3)C2)(c2ccc(Cl)c(Cl)c2)CN1CCC1CC1 | 2.51 | 1.58 |  |  |
| CS(=O)(=O)N1CCN(C2CN(CC[C@]3(c4ccc(Cl)c(Cl)c4)CCC(=O)N(CC4CCC(F)(F)CC4)C3)C2)CC1 | 1.26 | 1 |  | Caco-2 permeability (Homo sapiens [8]): Permeable |
| CS(=O)(=O)N1CCN(C2CN(CC[C@]3(c4ccc(Cl)c(Cl)c4)CCC(=O)N(CC4CC4)C3)C2)CC1 | 7.94 | 3.16 | < 0.167 | Caco-2 permeability (Homo sapiens [9]): 10 % hr-1 |
| O=C1CC[C@](CCN2CC(N3CCOCC3)C2)(c2ccc(Cl)c(Cl)c2)CN1CC1CCCCC1 | 0.794 | 1 | 0.233 | Caco-2 permeability (Homo sapiens [10]): Permeable |
| O=C1CC[C@](CCN2CC(N3CCOCC3)C2)(c2ccc(Cl)c(Cl)c2)CN1CC1CCC(F)(F)CC1 | 7.94 | 1.26 | 1.33 | Caco-2 permeability (Homo sapiens [11]): Permeable |
| O=C1CC[C@](CCN2CC(N3CCC(F)CC3)C2)(c2ccc(Cl)c(Cl)c2)CN1CC1CC1 | 10 | 2.51 | 1.42 | Caco-2 permeability (Homo sapiens [5]): Permeable |
| O=C1CC[C@](CCN2CC(N3CCOCC3)C2)(c2ccc(Cl)c(Cl)c2)CN1C1(C2CC2)CCCC1 |  | 0.251 | < 0.0167 | pKi (Substance-K receptor [6]): 9.5 |
| O=C1CC[C@](CCN2CC(N3CCOCC3)C2)(c2ccc(Cl)c(Cl)c2)CN1CC1CC1 | 79.4 | 2 | 2 | logD [12]: 2.3; Caco-2 permeability (Homo sapiens [13]): Permeable |
| NS(=O)(=O)N1CCN(C2CN(CC[C@]3(c4ccc(Cl)c(Cl)c4)CCC(=O)N(CC4CC4)C3)C2)CC1 | 3.98 | 1.26 | > 2 | Kb (Substance-K receptor [14]): 1.58 nM; Fa [15]: < 20%; logD [12]: 1.7; Caco-2 permeability (Homo sapiens [16]): Permeable; clearance [17]: < 3 mL/min/kg |
| NC1CCN(C2CN(CC[C@]3(c4ccc(Cl)c(Cl)c4)CCC(=O)N(CC4CC4)C3)C2)CC1 | 6.31 | 2 |  | Caco-2 permeability (Homo sapiens [18]): Permeable |
| O=C1CCN(C2CN(CC[C@]3(c4ccc(Cl)c(Cl)c4)CCC(=O)N(CC4CCC(F)(F)CC4)C3)C2)CC1 | 3.16 | 0.2 |  |  |
| NC1CCN(C2CN(CC[C@]3(c4ccc(Cl)c(Cl)c4)CCC(=O)N(CC4CCC(F)(F)CC4)C3)C2)CC1 | 1 | 0.2 |  | Caco-2 permeability (Homo sapiens [19]): < 1 % hr-1; logD [12]: 0.1 |
| O=C1CC[C@](CCN2CC(N3CCC(O)CC3)C2)(c2ccc(Cl)c(Cl)c2)CN1CC1CCC(F)(F)CC1 | 1.26 | 0.0794 |  | logD [12]: 2.2; Caco-2 permeability (Homo sapiens [20]): Permeable |
